# Laboratory results from patent US20230000876A1, “TREATING CANCERS WITH A CYCLIN-DEPENDENT KINASE INHIBITOR” (Nuvation Bio Inc., priority 2021, published 2023).
# Tests used:
# [1] = system: MOLT-4-luc; test: CellTiter-Glo anti-proliferation assay, MOLT-4-luc; assay type: cell-based
# Experimental: (§1) The anti-proliferation effect of 2 compounds (the compound of formula (I) and temozolomide) in 7 CNS metastasis cell lines (MOLT-4-luc, Nalm-6-luc, NCI-H460-luc, ACHN-luc2, PC-9-luc, H1975-luc, and KM12-luc) was evaluated.
# (§2) The plating of cells and compound treatments are shown below in the plate map (Table 12). One plate was needed for the test of 2 compounds (the compound of formula (I) and temozolomide) in one cell line. The compound of formula (I) was tested from 10 μM, 3-fold serial dilution. Temozolomide was tested from 100 μM, 3-fold serial dilution.
# (§3) All the cell lines were maintained in culture conditions at 37° C. in an atmosphere with 5% CO2 in air. The tumor cells were routinely subcultured. The cells growing in an exponential growth phase were harvested and counted for plating.
# (§4) Cells were counted by haemocytometer with Trypan blue staining. Next, 135 μL of cell suspension were plated into the assay plates according to the plate map and 135 μL of assay medium into the blank wells. The plates were incubated at 37° C., 5% CO2, 95% air and 100% relative humidity overnight.
# (§5) 4.4.4 Compound Plate (10×) Preparation and Compound Treatment • 10× concentrate compound plate preparation: Add 198 μL of assay medium into each well of the V-bottom plate; then transfer 2 μL of the stock compound solution of each concentration from the stock plate. Add 2 μL of DMSO into the Blank and Control wells. Pipette up and down to mix well. This V-plate is designated as the 10× concentrate compound plate. • For day 0 plate, add 15 μL of the DMSO-medium into the Control wells. The final DMSO concentration was 0.1%. Then directly proceed to cell viability assay. • For assay plate, add 15 μL of the compound-medium of each well from the 10× concentrate compound plate into the cells in 96-well assay plate according to the plate map. Add 15 μL of the DMSO-medium into the Blank and Control wells. The final DMSO concentration was 0.1%. • Return the assay plate into incubator and incubate for 6 days.
# (§6) The procedures were performed according to the Promega CellTiter-Glo Luminescent Cell Viability Assay Kit manual (Promega-G7573). • The CellTiter-Glo buffer was thawed and equilibrated to room temperature prior to use. • CellTiter-Glo Substrate was equilibrated to room temperature prior to use. • The entire liquid volume of CellTiter-Glo Buffer was transferred into the amber bottle containing CellTiter-Glo Substrate to reconstitute the lyophilized enzyme/substrate mixture. This forms the CellTiter-Glo Reagent. • The contents were mixed by gently vortexing to obtain a homogeneous solution. • The plate was equilibrated and its contents to room temperature for approximately 30 minutes. 75 μL (equal to the half volume of culture medium present in each well) CellTiter-Glo • Reagent was added in each well. Plates were covered with aluminum foil to protect from light. • The contents were mixed for 2 minutes on an orbital shaker to induce cell lysis. • The plate was incubated at room temperature for 20 minutes to stabilize luminescent signal. • Record luminescence on the 2104 EnVision plate reader.
# (§7) Inhibition rate (IR) of the tested compounds was determined by the following formula: IR (%)=(1−(RLU compound−RLU day0)/(RLU control−RLU day0))*100%. The inhibitions of different dose of compound were calculated in Excel file, and then were used to plot inhibition curves and evaluate related parameters, such as Min (%), Max (%) and GI50. The data were interpreted by GraphPad Prism.
# [2] = system: KM12-luc; test: CellTiter-Glo anti-proliferation assay, KM12-luc; assay type: cell-based
# Experimental: as §1, §2, §3, §4, §5, §6, §7
# [3] = system: xMDA-MB-361 breast tumor; test: xMDA-MB-361 breast tumor model (ER-positive/HER2-positive); assay type: in vivo, female BALB/c nude mice; conditions: Group 5: Compound (I) 30 mg/kg PO QD*42 days
# Experimental: Trastuzumab, tucatinib, Compound (I), and fulvestrant were tested in a xMDA-MB-361 breast tumor model (ER-positive/HER2-positive) on female BALB/c nude mice.
# [4] = system: SK-MEL-5; test: Cell viability assay, melanoma cell line SK-MEL-5; assay type: cell-based
# Experimental: as §5
# as §6, with “This forms the CellTiter-Glo Reagent. • The contents were mixed by gently vortexing to obtain a homogeneous solution. • The plate was equilibrated and its contents to room temperature for approximately 30 minutes. 75 μL (equal to the half volume of culture medium present in each well) CellTiter-Glo • Reagent was added in each well.” left out
# as §7, with “The data were interpreted by GraphPad Prism.” left out
# [5] = system: SK-MEL-28; test: Cell viability assay, melanoma cell line SK-MEL-28; assay type: cell-based
# Experimental: as §5
# as §6, with “This forms the CellTiter-Glo Reagent. • The contents were mixed by gently vortexing to obtain a homogeneous solution. • The plate was equilibrated and its contents to room temperature for approximately 30 minutes. 75 μL (equal to the half volume of culture medium present in each well) CellTiter-Glo • Reagent was added in each well.” left out
# as §7, with “The data were interpreted by GraphPad Prism.” left out
# [6] = system: 7 CNS metastasis cell lines (MOLT-4-luc, Nalm-6-luc, NCI-H460-luc, ACHN-luc2, PC-9-luc, H1975-luc, KM12-luc); test: Anti-proliferation assay, 7 CNS metastasis cell lines taken together; assay type: cell-based
# Experimental: as §1
# The plating of cells and compound treatments are shown below in the plate map (Table 12). One plate was needed for the test of 2 compounds (the compound of formula (I) and temozolomide) in one cell line. The compound of formula (I) was tested from 10 μM, 3-fold serial dilution. Temozolomide was tested from 100 μM, 3-fold serial dilution. […]
# as §6, with “This forms the CellTiter-Glo Reagent. • The contents were mixed by gently vortexing to obtain a homogeneous solution. • The plate was equilibrated and its contents to room temperature for approximately 30 minutes. 75 μL (equal to the half volume of culture medium present in each well) CellTiter-Glo • Reagent was added in each well.” left out, “reader. […]” for “reader.”
# [7] = system: U-87MG-luc orthotopic intracranial tumors; test: U-87MG-luc glioblastoma orthotopic intracranial model, survival; assay type: in vivo, female BALB/c nude mice
# Experimental: U-87MG-luc cells were derived from U-87MG parental cells acquired from ATCC by stably introducing the gene that encodes the luciferase (luc) protein. The U-87MG-luc cells were cultured at 37° C. in an atmosphere of 5% CO2 in air. The tumor cells were routinely subcultured twice weekly. The cells growing in an exponential growth phase were harvested and counted for tumor inoculation.
# 3×10^5 U-87MG-luc tumor cells were micro-injected into the right lobe (caudate nucleus) of the brain of each mouse. A total of 94 mice were inoculated. Ten days after cell inoculation, bioluminescence were measured by Xenogen IVIS Lumina II machine, 70 mice were selected and randomly assigned into 7 groups based on bioluminescence intensity and bodyweight. The mice were dosed according to Table 25.
# [8] = inhibition rate, 6 days, Compound (I) from 10 μM, temozolomide from 100 μM, 3-fold, 9 points
structure (smiles),measurement,setting,value
"CC(C)N1CCOc2c(F)cc(-c3nc(Nc4ccc(C5CCN(C)CC5)cn4)ncc3F)cc21 [Compound (I), 5-fluoro-4-(8-fluoro-4-isopropyl-3,4-dihydro-2H-benzo[b][1,4]oxazin-6-yl)-N-(5-(1-methylpiperidin-4-yl)pyridin-2-yl)pyrimidin-2-amine]",GI50,"[1]; 144 h, 6 days incubation, read-out: Absolute GI50",200 nM
same,Max (%),[1]; [8],103.5%
same,Min (%),[1]; [8],−18.4%
same,GI50,"[2]; KM12-Luc, 144 h, 6 days incubation, read-out: Absolute GI50",654 nM
same,Max (%),[2]; [8],111.2%
same,Min (%),[2]; [8],−15.2%
same,Tumor volume (mean ± SEM),[3]; Day 0,157 ± 11 mm^3
same,Tumor volume (mean ± SEM),[3]; Day 3,202 ± 10 mm^3
same,Tumor volume (mean ± SEM),[3]; Day 7,271 ± 34 mm^3
same,Tumor volume (mean ± SEM),[3]; Day 10,316 ± 43 mm^3
same,Tumor volume (mean ± SEM),[3]; Day 14,342 ± 49 mm^3
same,Tumor volume (mean ± SEM),[3]; Day 17,326 ± 70 mm^3
same,Tumor volume (mean ± SEM),[3]; Day 21,360 ± 84 mm^3
same,Tumor volume (mean ± SEM),[3]; Day 24,429 ± 119 mm^3
same,Tumor volume (mean ± SEM),[3]; Day 28,542 ± 146 mm^3
same,Tumor volume (mean ± SEM),[3]; Day 31,571 ± 150 mm^3
same,Tumor volume (mean ± SEM),[3]; Day 35,587 ± 148 mm^3
same,Tumor volume (mean ± SEM),[3]; Day 38,629 ± 164 mm^3
same,Tumor volume (mean ± SEM),[3]; Day 42,608 ± 145 mm^3
same,GI50,"[4]; Homo sapiens, SK-MEL-5, read-out: Absolute GI50",1240 nM
same,Max (%),[4]; inhibition rate,116.12%
same,Min (%),[4]; inhibition rate,−2.91%
same,GI50,"[5]; Homo sapiens, SK-MEL-28, read-out: Absolute GI50",152 nM
same,Max (%),[5]; inhibition rate,106.21%
same,Min (%),[5]; inhibition rate,1.70%
same,Inhibitory effect in cell viability assay,[6]; current testing concentrations,significant inhibitory effect
same,GI50,"[6]; read-out: Absolute GI50 values, range over 7 cell lines",47 to 2790 nM
same,Median survival,[7]; 1 mg/kg PO*QD (vehicle 37 days),37 days
same,Median survival,[7]; 3 mg/kg PO*QD (vehicle 37 days),40.5 days
same,Median survival,[7]; 10 mg/kg PO*QD (vehicle 37 days),45 days
same,Median survival,[7]; 30 mg/kg IV*QW (vehicle 37 days),39.5 days
same,Median survival,[7]; 30 mg/kg PO*QD (vehicle 37 days),56 days
same,Survival compared to vehicle treated group,[7]; PO at 10 mg/kg and 30 mg/kg,significantly prolonged survival
